Laboratory results reported in patent US11493517B2, “Eukaryotic translation initiation factors (EIFS) as novel biomarkers in head and neck squamous cell carcinoma (HNSCC)” (Otto-von-Guericke-Universität Magdeburg, priority 2020, dated 2022).
Read-outs that look alike come from different tables or passages of the source.

Tests used:
[1] = system: moderately differentiated laryngeal cancer cell lines (SNU-899, SNU-1066, SNU-1214); assay: MTT cell viability assay in cell culture; type: cell-based
Procedure: MTT Assay in Cell Culture Cell viability assays were carried out with 3 moderately differentiated laryngeal cancer cell lines (SNU-899, SNU-1066, SNU-1214}. MTT reagent stock solution was prepared by dissolving 5 mg crystal in 1 ml PBS and filter sterilization. The cell culture medium was aspirated and replaced by 100 μl fresh medium and 10 μl MTT stock solution per well. The plates were incubated at 37° C. for two hours. The supernatant was removed and 100 μl DMSO was added to each well. After 15-minute incubation at room temperature in a orbital shaker the absorption at […] was detected. All measurements were performed three times using GloMax@-Multi+Microplate Multimode Reader (Promega, Germany}. All experiments were performed three times with three repetitions.

[2] = system: 3D-organoids of HNSCC derived from patient populations; assay: Patient derived 3D-organoids chemosensitivity testing (CellTiter-Glo luminescence cell viability assay); type: cell-based; conditions: for IC50: Homo sapiens, patient derived HNSCC 3D-organoids, 72 h incubation
Procedure: Patient Derived 3D-Organoids (PD30} and Chemosensitivity Testing Tumor samples from patients, who have undergone resection in the ENT clinic of Otto-von-Guericke University in Magdeburg, were incubated overnight in the RPM medium containing penicillin, streptomycin and amphotericin. On the following day, the tissue samples were crushed, passed through a sieve set to produce a size fraction of between […], which were then incubated on 24-well plates at 37° C. The PD30s were incubated with Salubrinal in a 384-well culture plate for 72 h (i.e. the double population doubling time}. Thereafter, the CellTiter-Glo® luminescence cell viability assay was performed. The reagent mixture was assembled according to the manufacturer's instructions. All experiments were performed three times with three repetitions

O=C(/C=C/c1ccccc1)NC(NC(=S)Nc1cccc2cccnc12)C(Cl)(Cl)Cl (centres unmarked) [Salubrinal]
cytotoxicity at 50 µM ([1]; effect dependent on the cell line and on the dosage, highest efficacy at 50 μM after 72 hours, read-out: reduction of the viability of the cells): 20 to 40% | effect on cell viability (FIG. 4) ([1]; in words): reduction in cell viability | IC50 ([2]; read-out: IC50 range across samples, reduction of cell viability, range over samples): 16 to 158 µM | IC50 ([2]; read-out: average IC50, reduction of cell viability, average over samples): 56 µM | effect on cell viability in 3D-cell culture (FIG. 5) ([2]; in words): reduction of cell viability
